Assay results: paper PMC10998878, “Inhibition of acyl-CoA binding protein (ACBP) by means of a GABAARγ2-derived peptide” (Cell Death & Disease, 2024)
Entries after “also recorded” stand apart in the source; their conditions may differ.

Tests used:
C57BL/6 mice [1] = test: Concanavalin A-induced acute liver injury; assay type: in vivo, mouse; details: C57BL/6 male mice, peptide 5 mg/kg i.v. 90 min before concanavalin A 12 mg/kg i.v.
Experimental: GABAARγ2 peptides (5 mg/kg, i.v., dissolved in DMSO) were injected in 12-week-old C57BL/6 male mice 90 min before the injection of 12 mg/kg Concanavalin A (ConA, i.v., Sigma Aldrich, # C5275).
Fig. 7 In vivo inhibition of ACBP/DBI function by the GABAARγ2-derived eicosapeptide. A, B Appetite stimulation by ACBP/DBI. RecACBP/DBI alone or combined with GABAARγ2-derived eicosapeptides (EP) (WT or F77I) was administered in vivo by intravenous (i.v.) injection and individual cumulative food intake was measured after 30 min. GABAARγ2 peptides are represented as blue stars, while murine RecACBP/DBI is represented as red circles (A). […] C, D Immunoblots and densitometric quantification of LC3 lipidation in liver tissues from mice treated with GABAARγ2-derived eicosapeptides (EP) WT with or without the autophagy flux inhibitor leupeptin (n = 5 mice per group). p values were calculated by unpaired one-tailed Student’s t-test. E–G Inhibition of concanavalin A hepatotoxicity. GABAARγ2 WT peptide (or negative vehicle) was i.v. injected to C57BL/6 male mice followed by concanavalin A (or negative vehicle) administration 1.5 h later (E). Alanine transaminase (ALT) (F) and aspartate transaminase (AST) (G) activity in plasma was analyzed by means of a colorimetric assay (n = 7–9 mice per condition). p values were calculated by unpaired one-tailed Student’s t-test. ns: non-significant. Unt: Untreated.

C57BL/6 mice [2] = test: Food intake after intravenous injection; assay type: in vivo, mouse; details: i.v., RecACBP/DBI 0.5 mg/kg + peptide 5× molar excess (pre-incubated 16 h, 4 °C), cumulative food intake 30 min
Experimental: Prior to experimentation, mice were subjected to 24 h starvation followed by individual housing and acclimatization in individual cages (2 h). Subsequently, mice were intravenously (i.v.) injected with recombinant ACBP/DBI protein (RecACBP/DBI) (total volume of 200 μL, 0.5 mg/kg body weight), either alone or in combination with GABAARγ2 peptides (5× molar excess). Cumulative food intake was then analyzed as previously described. Prior to i.v. injections, the RecACBP mixes were pre-incubated (16 h, 4 °C) with GABAARγ2 peptides.

Huh-7 cells = test: WST-8 conversion (metabolic activation) by Huh-7 cells; assay type: cell-based, human; details: RecACBP/DBI pre-incubated overnight with eicosapeptide, 4 h
Experimental: Media and cell culture supplements were purchased from Gibco-Invitrogen (Carlsbad, CA, USA). Plasticware was purchased from Corning B.V. Life Sciences (Schiphol-Rijk, The Netherlands). Unless reported otherwise, the cell line used in this study was cultured at standard conditions (37 °C, 5% CO2, Dulbecco’s modified Eagle’s medium containing 10% fetal bovine serum, 10 mM HEPES buffer, 100 mg/L sodium pyruvate, 100 U/mL penicillin G sodium, and 100 µg/mL streptomycin sulfate). 2-deoxy-D-glucose (# D8375) and rotenone (# R8875) were purchased from Sigma (Burlington, MA, USA). Human hepatocellular carcinoma (Huh-7) cell line was used for in vitro experiments. Cells were plated in 6- or 96-well plates and grown for 24 h before treatments.
WST-8 conversion assays were conducted utilizing the Cell Counting Kit-8 (Sigma-Aldrich, #96992). Cells were seeded in a 96-well plate at a density of 3000 cells per well and incubated overnight for adherence. Then, the culture medium was removed, and fresh medium containing the specified treatments was added to the wells. Immediately following the addition of treatments, 10 μL of CCK-8 reagent was introduced to each well. Subsequently, the cells were incubated for 4.5 h at 37 °C to facilitate the conversion of WST-8 in response to cellular activity. Following the incubation period, the absorbance at 450 nm was quantified using a VICTOR® Nivo™ microplate reader. This measurement served as an indicator of WST-8 conversion, reflecting cellular metabolic activity.
Fig. 6 Inhibition of the metabolic effects of ACBP/DBI on hepatocytes by the GABAARγ2-derived eicosapeptide. A WST-8 conversion by murine primary hepatocytes treated with increasing concentrations of recombinant ACBP/DBI protein (RecACBP/DBI) for 4 h. Hepatocytes were isolated from tamoxifen-induced Acbp/Dbi f/f or Acbp/Dbi KO full-body genetic background mice (white- or blue-colored graphs respectively). […] For statistical analysis p values are calculated by one-way ANOVA. B WST-8 conversion by control (shUNR) and ACBP/DBI-knocked down (shACBP/DBI) human Huh-7 cells treated with increasing concentrations of RecACBP/DBI for 4 h. shUNR and shACBP/DBI cells are represented by white- or blue-colored graphs respectively. […] C WST-8 conversion by Huh-7 cells treated with RecACBP/DBI or negative control (4 h). Cells were pre-treated with 2-deoxy-D-glucose (2-Deoxy-D-glu; 300 µM) or vehicle (2 h). […] D WST-8 conversion by Huh-7 cells treated with RecACBP/DBI or negative control (4 h). Cells were pre-treated with rotenone (0.5 µM) or vehicle (2 h). […] E WST-8 conversion by Huh-7 cells treated with RecACBP/DBI or negative control (4 h). Prior to administration, RecACBP/DBI was overnight pre-incubated with monoclonal antibody (α-ACBP/DBI) or isotype IgG1. […] F WST-8 conversion by Huh-7 cells treated with RecACBP/DBI or negative control (4 h). Prior to administration, RecACBP/DBI was overnight pre-incubated with GABAARγ2 (WT or F77I-mutated) eicosapeptides.

Sequence: INMEYTIDIFFAQTWYDRRL [GABAARγ2-EP-WT]
- protection against concanavalin A hepatotoxicity, in words (C57BL/6 mice [1]): attenuate acute hepatotoxicity induced by concanavalin A
- plasma alanine aminotransferase (ALT) after concanavalin A (C57BL/6 mice [1]; n = 7–9): significantly blunted the surge
- plasma aspartate aminotransferase (AST) after concanavalin A (C57BL/6 mice [1]; n = 7–9): significantly blunted the surge
- protection against concanavalin A hepatotoxicity, in words (C57BL/6 mice [1]; listed as GABAARγ2-derived eicosapeptide): protected mice against the hepatotoxin concanavalin A
- effect on RecACBP/DBI-induced hyperphagy (C57BL/6 mice [2]; n = 4 to 9): abolished; also recorded: efficiently blocked
- effect on RecACBP/DBI-induced hyperphagy (C57BL/6 mice [2]; n = 4 to 9, listed as GABAARγ2-derived eicosapeptide): blocked appetite stimulation by recombinant ACBP/DBI in vivo
- inhibition of RecACBP/DBI-stimulated WST-8 conversion (eicosapeptides) (Huh-7 cells; n = 3): inhibited the ACBP/DBI-stimulated metabolic activation of Huh7 cells; also recorded: efficiently blocked the effects of recombinant human ACBP/DBI protein on human hepatocytes
- inhibition of RecACBP/DBI-stimulated WST-8 conversion (eicosapeptides) (Huh-7 cells; n = 3, listed as GABAARγ2-derived eicosapeptide): inhibited the metabolic activation of hepatocytes by recombinant ACBP/DBI protein in vitro
